Measurements taken from EP4610269A1, “UROKINASE PLASMINOGEN ACTIVATOR SURFACE RECEPTOR (UPAR) LIGANDS FOR DIAGNOSTIC OR THERAPEUTIC USE” (3B Pharmaceuticals GmbH, priority 2024, dated 2025).
Where a SMILES comes first, the peptide text is derived from it. Bridges are numbered along the chain shown (N, C = ends). [ ]: non-standard residue; d: D form. The star is where a group is joined. X4 = C[N+](C)(CCCC[C@H](NC(=O)CN1CCN(CC(=O)O)CCN(CC(=O)O)CCN(CC(=O)O)CC1)C(=O)*)CCCS(=O)(=O)[O-]; Acetyl(4-DOTA-piperazinyl) = O=C(O)CN1CCN(CC(=O)O)CCN(CC(=O)N2CCN(CC(=O)*)CC2)CCN(CC(=O)O)CC1; DOTA = O=C(O)CN1CCN(CC(=O)O)CCN(CC(=O)*)CCN(CC(=O)O)CC1; Pro(trans-4-F) = O=C(O)[C@@H]1C[C@@H](F)CN1; Phe(4-Cl) = N[C@@H](Cc1ccc(Cl)cc1)C(=O)O; Pro(cis-4-F) = O=C(O)[C@@H]1C[C@H](F)CN1; Dopa = N[C@@H](Cc1ccc(O)c(O)c1)C(=O)O; Cyclopentanecarbonyl = O=C(C1CCCC1)*; Hyp = O=C(O)[C@@H]1C[C@@H](O)CN1; 3Pal = N[C@@H](Cc1cccnc1)C(=O)O; Pentanoyl(4-Me) = CC(C)CCC(=O)*; Cit = NC(=O)NCCC[C@H](N)C(=O)O; Butoxycarbonyl = CCCCOC(=O)*; Phg = N[C@H](C(=O)O)c1ccccc1; Tle = CC(C)(C)[C@H](N)C(=O)O; Nle = CCCC[C@H](N)C(=O)O; Octanoyl = CCCCCCCC(=O)*; Orn = NCCC[C@H](N)C(=O)O; Nva = CCC[C@H](N)C(=O)O; Hexanoyl = CCCCCC(=O)*; Pentanoyl = CCCCC(=O)*

Legend:
human uPAR (uPAR-Fc) = molecular target: T1, human uPAR (uPAR-Fc) (Homo sapiens, UniProt Q03405); experiment: Surface plasmon resonance (SPR) assay, single cycle kinetics; format: binding; conditions: pKD category for uPAR SPR activity assay; uPAR-Fc on Protein A-Chip, 25°C; read-out: pKD CAT (converted)
T1 construct: comprising amino acids Leu23-Arg303 according to UniProt entry Q03405.1; purchased R&D Systems 10378-UK-100
How it was run: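 uPAR-Fc (Leu23-Arg303 extracellular domains, human IgG1 Fc) captured on Protein A chip to ~2000 RU; single-cycle kinetics at 25°C in HEPES running buffer pH 7.4 with 0.1% DMSO. KD from double-referenced sensorgrams fitted to 1:1 Langmuir model, reported as pKD.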

[1] = molecular target: T2, uPAR-expressing HEC-265 human endometrial adenocarcinoma cells (Homo sapiens, UniProt Q03405); experiment: Competitive FACS binding assay; conditions: pIC50 category of FACS binding
T2 construct: Cell surface uPAR-expressing HEC-265 human endometrial adenocarcinoma cells; host or cells: HEC-265
How it was run: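 Competitive displacement of a 10 nM biotinylated peptide from HEC-265 cells (1 h, 4 °C, PBS/1% BSA), detected via APC-streptavidin by flow cytometry. pIC50 from four-parameter logistic fit of median fluorescence versus concentration.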

T1 sequence (Q03405 23-303): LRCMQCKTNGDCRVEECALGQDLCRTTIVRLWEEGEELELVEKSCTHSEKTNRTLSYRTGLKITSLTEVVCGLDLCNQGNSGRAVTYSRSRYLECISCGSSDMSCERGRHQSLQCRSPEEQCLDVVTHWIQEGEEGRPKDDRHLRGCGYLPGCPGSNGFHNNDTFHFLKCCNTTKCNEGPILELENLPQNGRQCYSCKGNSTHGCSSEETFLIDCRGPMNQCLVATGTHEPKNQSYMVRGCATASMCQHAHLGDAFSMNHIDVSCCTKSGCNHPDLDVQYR
T2 sequence (Q03405 23-335): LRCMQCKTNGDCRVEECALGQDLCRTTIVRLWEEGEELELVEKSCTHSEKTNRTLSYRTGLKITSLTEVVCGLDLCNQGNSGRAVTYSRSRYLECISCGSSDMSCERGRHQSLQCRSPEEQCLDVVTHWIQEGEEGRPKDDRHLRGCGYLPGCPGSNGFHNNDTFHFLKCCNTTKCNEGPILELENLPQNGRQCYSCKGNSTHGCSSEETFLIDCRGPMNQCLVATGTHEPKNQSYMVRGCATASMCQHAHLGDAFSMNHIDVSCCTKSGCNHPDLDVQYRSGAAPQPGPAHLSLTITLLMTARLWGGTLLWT

Structure (SMILES)	Kd (human uPAR (uPAR-Fc)) [nM]	IC50 [1] [nM]
CCCCOC(=O)N[C@H]1CSSC[C@@H](C(N)=O)NC(=O)[C@H](CCC)NC(=O)[C@H]([C@@H](C)CC)NC(=O)[C@@H]2C[C@@H](O)CN2C(=O)[C@@H]2C[C@H](F)CN2C(=O)[C@H](Cc2ccccc2)NC(=O)[C@H](Cc2ccc(O)cc2)NC(=O)[C@H](CCCNC(=O)CN2CCN(CC(=O)O)CCN(CC(=O)O)CCN(CC(=O)O)CC2)NC(=O)[C@H]([C@@H](C)O)NC1=O [UPAR-192, Butoc-[Cys-Thr-Orn(DOTA)-Tyr-Phe-4Cfp-Hyp-Ile-Nva-Cys]-NH2] (Butoxycarbonyl-CT[Orn](DOTA)YF[Pro(cis-4-F)][Hyp]I[Nva]C-NH2; disulfide 1-10)	< 1.58	≤ 10
CCCCCCCC(=O)N[C@H]1CSSC[C@@H](C(N)=O)NC(=O)[C@H](CCC)NC(=O)[C@H]([C@@H](C)CC)NC(=O)[C@@H]2C[C@@H](O)CN2C(=O)[C@@H]2CCCN2C(=O)[C@H](Cc2ccccc2)NC(=O)[C@H](Cc2ccc(O)cc2)NC(=O)[C@H](CCC(N)=O)NC(=O)[C@H](CCCNC(=N)N)NC1=O [UPAR-193, Oct-[Cys-Arg-Gln-Tyr-Phe-Pro-Hyp-Ile-Nva-Cys]-NH2] (Octanoyl-CRQYFP[Hyp]I[Nva]C-NH2; disulfide 1-10)	< 1.58	≤ 10
CCCCOC(=O)N[C@H]1CSSC[C@@H](C(N)=O)NC(=O)[C@H](CCC)NC(=O)[C@H]([C@@H](C)CC)NC(=O)[C@@H]2C[C@@H](O)CN2C(=O)[C@@H]2C[C@H](F)CN2C(=O)[C@H](Cc2ccccc2)NC(=O)[C@H](Cc2ccc(O)c(O)c2)NC(=O)[C@H](CCCCNC(=O)[C@H](CCCC[N+](C)(C)CCCS(=O)(=O)[O-])NC(=O)CN2CCN(CC(=O)O)CCN(CC(=O)O)CCN(CC(=O)O)CC2)NC(=O)[C@H]([C@@H](C)O)NC1=O [UPAR-194, Butoc-[Cys-Thr-Lys(DOTA-Kzw)-Dopa-Phe-4Cfp-Hyp-Ile-Nva-Cys]-NH2] (Butoxycarbonyl-CTK(X4)[Dopa]F[Pro(cis-4-F)][Hyp]I[Nva]C-NH2; disulfide 1-10)	< 1.58	≤ 10
CCCCC(=O)N[C@H]1CSSC[C@@H](C(N)=O)NC(=O)[C@H](CCC)NC(=O)[C@H]([C@@H](C)CC)NC(=O)[C@@H]2C[C@@H](O)CN2C(=O)[C@@H]2CCCN2C(=O)[C@H](Cc2ccccc2)NC(=O)[C@H](CC(C)C)NC(=O)[C@H](CCC(N)=O)NC(=O)[C@H](CCCNC(=N)N)NC1=O [UPAR-195, Pent-[Cys-Arg-Gln-Leu-Phe-Pro-Hyp-Ile-Nva-Cys]-NH2] (Pentanoyl-CRQLFP[Hyp]I[Nva]C-NH2; disulfide 1-10)	1.58 to 10	12.6 to 31.6
CCCCC(=O)N[C@H]1CSSC[C@@H](C(N)=O)NC(=O)[C@H](CCC)NC(=O)[C@H]([C@@H](C)CC)NC(=O)[C@@H]2C[C@@H](O)CN2C(=O)[C@@H]2CCCN2C(=O)[C@H](Cc2ccccc2)NC(=O)[C@H](c2ccccc2)NC(=O)[C@H](CCC(N)=O)NC(=O)[C@H](CCCNC(=N)N)NC1=O [UPAR-196, Pent-[Cys-Arg-Gln-Phg-Phe-Pro-Hyp-Ile-Nva-Cys]-NH2] (Pentanoyl-CRQ[Phg]FP[Hyp]I[Nva]C-NH2; disulfide 1-10)	> 100	≥ 126
CCCCC(=O)N[C@H]1CSSC[C@@H](C(N)=O)NC(=O)[C@H](CCC)NC(=O)[C@H]([C@@H](C)CC)NC(=O)[C@@H]2C[C@@H](O)CN2C(=O)[C@@H]2CCCN2C(=O)[C@H](CC(C)C)NC(=O)[C@H](Cc2ccc(O)cc2)NC(=O)[C@H](CCC(N)=O)NC(=O)[C@H](CCCNC(=N)N)NC1=O [UPAR-197, Pent-[Cys-Arg-Gln-Tyr-Leu-Pro-Hyp-Ile-Nva-Cys]-NH2] (Pentanoyl-CRQYLP[Hyp]I[Nva]C-NH2; disulfide 1-10)	1.58 to 10	12.6 to 31.6
CCCC[C@@H]1NC(=O)[C@H](CCCNC(=N)N)NC(=O)[C@@H](NC(=O)[C@H](CC(C)C)NC(=O)[C@H](CC(=O)O)NC(C)=O)CSSC[C@@H](C(N)=O)NC(=O)[C@H](CC(C)C)NC(=O)[C@H]([C@@H](C)CC)NC(=O)[C@H](C)NC(=O)[C@@H]2CCCN2C(=O)[C@H](Cc2ccccc2)NC(=O)[C@@H](Cc2ccc(O)cc2)NC1=O [UPAR-198, Ac-Asp-Leu-[Cys-Arg-Nle-tyr-Phe-Pro-Ala-Ile-Leu-Cys]-NH2] (Ac-DLCR[Nle][dY]FPAILC-NH2; disulfide 3-12)	> 100	≥ 126
CCCCOC(=O)N[C@H]1CSSC[C@@H](C(N)=O)NC(=O)[C@H](CCC)NC(=O)[C@H]([C@@H](C)CC)NC(=O)[C@@H]2C[C@@H](O)CN2C(=O)[C@@H]2C[C@H](F)CN2C(=O)[C@H](Cc2ccccc2)NC(=O)[C@H](Cc2ccc(O)c(O)c2)NC(=O)[C@H](CCCCNC(=O)CN2CCN(C(=O)CN3CCN(CC(=O)O)CCN(CC(=O)O)CCN(CC(=O)O)CC3)CC2)NC(=O)[C@H]([C@@H](C)O)NC1=O [UPAR-199, Butoc-[Cys-Thr-Lys(DOTA-PPAc)-Dopa-Phe-4Cfp-Hyp-Ile-Nva-Cys]-NH2] (Butoxycarbonyl-CTK(Acetyl(4-DOTA-piperazinyl))[Dopa]F[Pro(cis-4-F)][Hyp]I[Nva]C-NH2; disulfide 1-10)	< 1.58	≤ 10

The next lines start with the values.

Kd (human uPAR (uPAR-Fc)) [nM]	IC50 [1] [nM]	Structure (SMILES)
10 to 100	39.8 to 100	CC(C)CCC(=O)N[C@H]1CSSC[C@@H](C(N)=O)NC(=O)[C@H](CC(C)C)NC(=O)[C@H](C(C)(C)C)NC(=O)[C@@H](C)NC(=O)[C@@H]2CCCN2C(=O)[C@H](Cc2ccccc2)NC(=O)[C@H](Cc2ccc(O)cc2)NC(=O)[C@H](CCC(N)=O)NC(=O)[C@H](CCCNC(N)=O)NC1=O [UPAR-201, iHex-[Cys-Cit-Gln-Tyr-Phe-Pro-ala-Tle-Leu-Cys]-NH2] ({Pentanoyl(4-Me)}-C[Cit]QYFP[dA][Tle]LC-NH2; disulfide 1-10)
< 1.58	≤ 10	CCCCCC(=O)N[C@@H](CO)C(=O)N[C@@H](CC(C)C)C(=O)N[C@H]1CSSC[C@@H](C(N)=O)NC(=O)[C@H](CC(C)C)NC(=O)[C@H]([C@@H](C)CC)NC(=O)[C@H](C)NC(=O)[C@@H]2CCCN2C(=O)[C@H](Cc2ccccc2)NC(=O)[C@H](Cc2ccccc2)NC(=O)[C@H](CCC(N)=O)NC(=O)[C@H](CC(=O)O)NC1=O [UPAR-202, Hex-Ser-Leu-[Cys-Asp-Gln-Phe-Phe-Pro-Ala-Ile-Leu-Cys]-NH2] (Hexanoyl-SLCDQFFPAILC-NH2; disulfide 3-12)
10 to 100	≥ 126	CCCCC(=O)N[C@H]1CSSC[C@@H](C(N)=O)NC(=O)[C@H](CCC)NC(=O)[C@H]([C@@H](C)CC)NC(=O)[C@@H]2C[C@@H](O)CN2C(=O)[C@@H]2CCCN2C(=O)[C@H](c2ccccc2)NC(=O)[C@H](Cc2ccc(O)cc2)NC(=O)[C@H](CCC(N)=O)NC(=O)[C@H](CCCNC(=N)N)NC1=O [UPAR-203, Pent-[Cys-Arg-Gln-Tyr-Phg-Pro-Hyp-Ile-Nva-Cys]-NH2] (Pentanoyl-CRQY[Phg]P[Hyp]I[Nva]C-NH2; disulfide 1-10)
< 1.58	≤ 10	CCCCC(=O)N[C@H]1CSSC[C@@H](C(N)=O)NC(=O)[C@H](CCC)NC(=O)[C@H](Cc2ccc(Cl)cc2)NC(=O)[C@@H]2C[C@@H](O)CN2C(=O)[C@@H]2CCCN2C(=O)[C@H](Cc2ccccc2)NC(=O)[C@H](Cc2ccc(O)cc2)NC(=O)[C@H](CCC(N)=O)NC(=O)[C@H](CCCNC(=N)N)NC1=O [UPAR-204, Pent-[Cys-Arg-Gln-Tyr-Phe-Pro-Hyp-Pcf-Nva-Cys]-NH2] (Pentanoyl-CRQYFP[Hyp][Phe(4-Cl)][Nva]C-NH2; disulfide 1-10)
> 100	≥ 126	CCCCC(=O)N[C@@H](C)C(=O)N[C@@H](CCCNC(N)=O)C(=O)N[C@@H](CCC(N)=O)C(=O)N[C@@H](Cc1ccc(O)cc1)C(=O)N[C@@H](Cc1ccccc1)C(=O)N1CCC[C@H]1C(=O)N1C[C@H](O)C[C@H]1C(=O)N[C@H](C(=O)N[C@@H](CCC)C(=O)N[C@@H](CSC)C(N)=O)[C@@H](C)CC [UPAR-205, Pent-Ala-Cit-Gln-Tyr-Phe-Pro-Hyp-Ile-Nva-Smc-NH2] (Pentanoyl-A[Cit]QYFP[Hyp]I[Nva]C(Me)-NH2)
1.58 to 10	12.6 to 31.6	CCCCC(=O)N[C@H]1CSSC[C@@H](C(=O)NCC(N)=O)NC(=O)[C@H](CCC)NC(=O)[C@H]([C@@H](C)CC)NC(=O)[C@@H]2C[C@@H](O)CN2C(=O)[C@@H]2CCCN2C(=O)[C@H](Cc2ccccc2)NC(=O)[C@H](Cc2ccc(O)cc2)NC(=O)[C@H](CCC(N)=O)NC(=O)[C@H](CCCNC(N)=O)NC1=O [UPAR-206, Pent-[Cys-Cit-Gln-Tyr-Phe-Pro-Hyp-Ile-Nva-Cys]-Gly-NH2] (Pentanoyl-C[Cit]QYFP[Hyp]I[Nva]CG-NH2; disulfide 1-10)
1.58 to 10	≤ 10	CCCCC(=O)N[C@H]1CSSC[C@@H](C(N)=O)NC(=O)[C@H](CCC)NC(=O)[C@H]([C@@H](C)CC)NC(=O)[C@@H]2C[C@@H](F)CN2C(=O)[C@@H]2CCCN2C(=O)[C@H](Cc2cccnc2)NC(=O)[C@H](Cc2ccc(O)cc2)NC(=O)[C@H](CCCCNC(=O)CN2CCN(CC(=O)O)CCN(CC(=O)O)CCN(CC(=O)O)CC2)NC(=O)[C@H](CCCNC(N)=O)NC1=O [UPAR-207, Pent-[Cys-Cit-Lys(DOTA)-Tyr-Mpa-Pro-4Tfp-Ile-Nva-Cys]-NH2] (Pentanoyl-C[Cit]K(DOTA)Y[3Pal]P[Pro(trans-4-F)]I[Nva]C-NH2; disulfide 1-10)
< 1.58	≤ 10	CC[C@H](C)[C@@H]1NC(=O)[C@@H](C)NC(=O)[C@@H]2CCCN2C(=O)[C@H](Cc2ccccc2)NC(=O)[C@H](Cc2ccc(O)cc2)NC(=O)[C@H](CCC(N)=O)NC(=O)[C@H](CCCNC(N)=O)NC(=O)[C@@H](NC(=O)C2CCCC2)CSSC[C@@H](C(N)=O)NC(=O)[C@H](CC(C)C)NC1=O [UPAR-208, Cp-[Cys-Cit-Gln-Tyr-Phe-Pro-ala-Ile-Leu-Cys]-NH2] (Cyclopentanecarbonyl-C[Cit]QYFP[dA]ILC-NH2; disulfide 1-10)
